This note sets out measurements from patent US20180153830A1, “SELECTIVE INHIBITORS OF UNDIFFERENTIATED CELLS” (Yissum Research Development Company of the Hebrew …, priority 2012, published 2018).

For assay [1], the system named is CSES2 human embryonic stem cells. Briefly: CellTiter-Glo luminescent cell viability screen, CSES2. The class given is cell-based. Particulars: for inhibition at 20 µM: pluripotent stem cells. As to the method: 5,000 CSES2 cells were plated in 50 μl per well of mTeSR1 medium into black 384-well clear-bottom plates (Falcon BD) pre-coated with Matrigel™ using WellMate cell dispenser (Matrix, Hudson, N.H.). 24 hours after plating, medium was replaced with 25 μl of fresh medium and 25 μl of 40 μM compound medium solutions in 1% DMSO from the intermediate compound dilution plates. The plates were incubated at 37° C., in a 5% CO2 atmosphere, for the entire duration of the screen, apart from the time required for liquid handling. […] 50 μl of CellTiter-Glo® reagent was added to each well of the assay plates and fully mixed. After incubation at room temperature for 15 minutes, 25 μl of liquid was transferred from each well into a white opaque-bottom 384-well plate (PerkinElmer), and luminescence was measured using an EnVision® plate reader (PerkinElmer). 16 neutral control wells (0.5% DMSO) and 8 positive control wells (5 μM amsacrine hydrochloride were used to normalize the compound effect. All liquid transfer steps were handled with a Biomek® FXP Laboratory Automation Workstation (Beckman Coulter, Fullerton, Calif.) and Muitidrop Combi liquid dispenser (Thermo Fisher, Waltham, Mass.). An Assay Analyzer (Genedata, Basel, Switzerland) was used for data pattern correction and calculation. The Spotfire software (Spotfire, Somerville, Mass.) was used for data illustration.
(§1) The compounds identified as hits from the primary screen were retested at a concentration of 20 μM against three pluripotent stem cell lines (CSES2, H9 and CSES2-SO2/3) for confirmation screens.
696 confirmed hits from the confirmation screen were tested for profiling in a panel of 13 different cell types, using the same screening protocol described above (except in the case of embryonic stem cell-derived neural stem cells (NSCs) and mesenchymal stem cells (MSCs), for which the protocol is described below). As discussed below, compounds were tested either in dose-dependent multiple concentration manner or in single concentration manner. CSES2 and CSES2-SO2/3 cell lines and the early endodermal progenitors derived from this cell line (CSES2-SO2/3-differentiated) were screened at 8 concentrations ranging from 50 μM to 23 nM with 1:3 serial dilution steps. BJ-iPS28 cell line and the BJ fibroblasts from which it was derived were screened at 6 concentrations ranging from 50 μM to 200 nM with 1:3 serial dilution steps. Cardiomyocytes were screened in one concentration of 20 μM. HeLa and NTERA-2 cell lines were screened in duplicates of 20 μM. Kelly and Huh-7 were screened in triplicates of 20 μM. Hepatocytes were screened in duplicates of 20 μM in the original 96-well plates in which the cells arrived (40,000 cells per well, in 160 μl medium, the volumes of all reagents involved were adjusted accordingly). MSCs and NSCs were screened in duplicates of 12.5 μM.
(§2) The raw intensity data for each well were background-corrected by subtraction of the median intensities across all positive control wells on the same plate, and used to calculate the inhibitory effect of each compound per cell line. A Genedata Assay Analyzer and Condoseo were used for data pattern correction, calculation and IC50 curve fitting. A Z′ factor was determined for each plate.
For orientation: ATP-based viability assays read luminescence as a measure of living cells.

Assay [2] has as its system H9 human embryonic stem cells. Description: CellTiter-Glo luminescent cell viability screen, H9. The class given is cell-based. Particulars: pluripotent stem cells. As to the method:
5,000 CSES2 cells were plated in 50 μl per well of mTeSR1 medium into black 384-well clear-bottom plates (Falcon BD) pre-coated with Matrigel™ using WellMate cell dispenser (Matrix, Hudson, N.H.). 24 hours after plating, medium was replaced with 25 μl of fresh medium and 25 μl of 40 μM compound medium solutions in 1% DMSO from the intermediate compound dilution plates. The plates were incubated at 37° C., in a 5% CO2 atmosphere, for the entire duration of the screen, apart from the time required for liquid handling. Cell viability was determined 24 hours after compound treatment using CellTiter-Glo® luminescent cell viability assay kits. 50 μl of CellTiter-Glo® reagent was added to each well of the assay plates and fully mixed. After incubation at room temperature for 15 minutes, 25 μl of liquid was transferred from each well into a white opaque-bottom 384-well plate (PerkinElmer), and luminescence was measured using an EnVision® plate reader (PerkinElmer). 16 neutral control wells (0.5% DMSO) and 8 positive control wells (5 μM amsacrine hydrochloride were used to normalize the compound effect. All liquid transfer steps were handled with a Biomek® FXP Laboratory Automation Workstation (Beckman Coulter, Fullerton, Calif.) and Muitidrop Combi liquid dispenser (Thermo Fisher, Waltham, Mass.). An Assay Analyzer (Genedata, Basel, Switzerland) was used for data pattern correction and calculation. The Spotfire software (Spotfire, Somerville, Mass.) was used for data illustration.
as §1, §2

[3] abbreviates: 24 h, read-out: EC50 CSES2 24 hours.
Setting [4] is: 48 h, read-out: EC50 CSES2 48 hours.

Read-outs that look alike come from different tables or passages of the source.

What is called EC50 is the concentration that produces a half-maximal response. The term inhibition denotes the drop in the measured response relative to a control, in per cent. Regarding `CCCCCC(=O)NNc1ccc(Cl)cc1` [PluriSIn #10], the EC50 was found to be 1670 nM in assay [1] (setting [3]) and 2050 nM in assay [1] (setting [4]). Further, the inhibition at 20 µM stood at 95% in assay [1] and 88% in assay [2].
`O=C(NCCc1ccc(O)cc1)c1ccc(N2CCCCC2)cc1` [PluriSIn #4]: the EC50 in assay [1] (setting [3]) is 1110 nM; in assay [1] (setting [4]) it was 594 nM. Besides, the inhibition at 20 µM in assay [1] was 84.7%; in assay [2] it was 74.1%.
For the molecule `O=S(=O)(NNc1ccccc1)c1ccc2ccccc2c1` [PluriSIn #5], the values for the EC50 in assay [1] (setting [3]) and in assay [1] (setting [4]) were 3060 nM and 1270 nM, respectively. In addition, the values for the inhibition at 20 µM in assay [1] and in assay [2] were 88.2% and 82.2%, respectively.
As for `O=C(NN(C(=O)c1ccccc1)c1ccccc1)c1ccc(Cl)cc1` [PluriSIn #14], the EC50 was found to be 2030 nM in assay [1] (setting [3]) and 2900 nM in assay [1] (setting [4]). The inhibition at 20 µM in assay [1] was 90.1%; in assay [2], 79.4%.
`CCOC(=O)CN1CC(=O)/C(=C\NNc2ccccc2)C1=O` [PluriSIn #11]: the values for the EC50 in assay [1] (setting [3]) and in assay [1] (setting [4]) were 3830 nM and 2580 nM, respectively. The inhibition at 20 µM amounted to 98.8% in assay [1] and 94% in assay [2].
The corresponding values for `O=C(Nc1ccccc1)n1cc(F)c(=O)[nH]c1=O` [PluriSIn #2] are 2030 nM, 2630 nM, 84% and 65.4%.
With `Nc1cc(N)cc(COc2ccc(-c3ccccc3)cc2)c1` [PluriSIn #3], the EC50 was determined as 2980 nM in assay [1] (setting [3]) and 1320 nM in assay [1] (setting [4]). The inhibition at 20 µM in assay [1] came out at 98%; in assay [2], 110%.
The corresponding values for `CCN(CC)C(=O)C(=O)c1c(-c2ccccc2)[nH]c2c1sc1ccccc12` [PluriSIn #12] are 6850 nM, 5100 nM, 93% and 95.8%.
For `O=C(NNc1ccccc1)c1ccncc1` [PluriSIn #1, isonicotinic acid N′-phenylhydrazide], the EC50 in assay [1] (setting [3]) was 1540 nM; in assay [1] (setting [4]), 1990 nM. Besides, the values for the inhibition at 20 µM in assay [1] and in assay [2] were 92.1% and 88.6%, respectively.
`C/C(=N\O)NNc1ccc(Cl)cc1` [PluriSIn #9]: the EC50 in assay [1] (setting [3]) was 7960 nM; in assay [1] (setting [4]), 2160 nM. Moreover, the inhibition at 20 µM in assay [1] was found to be 102%; in assay [2] it was 101%.
For `O=C1C=CC=C1/C=C/C(=N\Nc1ccccc1)c1ccccc1` [PluriSIn #13], the EC50 in assay [1] (setting [3]) amounted to 1540 nM; in assay [1] (setting [4]) it was 1910 nM. The inhibition at 20 µM in assay [1] and in assay [2] was 101% throughout.
As to `CC(=O)Oc1ccc(/C=C/c2ccc3c(c2)CCN3C)cc1` [PluriSIn #7], the EC50 in assay [1] (setting [3]) was found to be 1980 nM; in assay [1] (setting [4]), 749 nM. Besides, the inhibition at 20 µM in assay [1] turned out to be 104%; in assay [2] it was 109%.
As for `C(=N\C1CCC(CC2CCCCC2)CC1)/OC1CCOC1` (stereo not drawn) [PluriSIn #15], the EC50 in assay [1] (setting [3]) is 2980 nM; in assay [1] (setting [4]), 3270 nM. The inhibition at 20 µM was determined as 77.6% in assay [1] and 79.5% in assay [2].
In the case of `Cc1ccc(NNC(=O)C(O)(c2ccccc2)c2cccs2)cc1` (stereo not drawn) [PluriSIn #6, 2-hydroxy-2-(thiophen-2-yl)-2-phenylacetic acid 4-methyl-N′-phenylhydrazide], the results for the EC50 in assay [1] (setting [3]) and in assay [1] (setting [4]) were 2550 nM and 1920 nM, respectively. The inhibition at 20 µM was 94.8% in assay [1] and 90.1% in assay [2].
`Cc1oc2ccccc2c1/C=N/Nc1ccccc1` [PluriSIn #8]: the EC50 in assay [1] (setting [3]) amounted to 2300 nM; in assay [1] (setting [4]), 2390 nM. For the same molecule, the inhibition at 20 µM was 98.6% in assay [1] and 85.5% in assay [2].
